Measurements reported in US12649750B2, “Macrocyclic compounds, compositions, and methods of using thereof” (Sionna Therapeutics Inc., priority 2022, dated 2026).

Target: T1, NBD1 (Homo sapiens, UniProt P13569)
T1 construct: Purified recombinant NBD1 was produced using previously described methods; made in house
Test: Aggregation analysis using differential static light scattering (DSLS), thermal stability of NBD1 (ΔTagg)
Format: binding
Conditions: ΔTagg versus DMSO control, NBD1 0.2 mg/ml
Method in brief: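 Stabilisation is measured as the shift in aggregation onset of recombinant NBD1 (0.2 mg/ml, 2 mM ATP, 5 mM MgCl2, pH7.6) exposed to compound. Images are taken every 0.5° C. while heating at 1° C. per minute, and the inflection-point Tagg is corrected by the DMSO mean.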

T1 sequence (P13569 423-646 limits assumed): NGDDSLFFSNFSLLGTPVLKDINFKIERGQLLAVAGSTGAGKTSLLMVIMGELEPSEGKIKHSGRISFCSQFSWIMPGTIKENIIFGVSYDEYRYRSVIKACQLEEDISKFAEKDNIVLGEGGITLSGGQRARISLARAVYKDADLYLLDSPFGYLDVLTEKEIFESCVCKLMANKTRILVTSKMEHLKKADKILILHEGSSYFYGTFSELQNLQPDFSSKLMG

SMILES	DSLS 3D (100 μM ΔT)
Cn1nc2nc1-c1cc(ccn1)Sc1c(F)c(F)c3[nH]ccc3c1CCS(=O)(=O)CC(C)(C)CCC[C@]2(C)c1cccc(C[C@H](O)CO)c1 [Compound 340, (2S)-3-[3-[(6R)-21,22-Difluoro-3,6,10,10-tetramethyl-12,12-dioxo-12λ6,24-dithia-3,4,19,28,30-pentazapentacyclo[23.3.1.12,5.015,23.016,20]triaconta-1(29),2(30),4,15,17,20,22,25,27-nonaen-6-yl]phenyl]propane-1,2-diol]	B (a value above 5 °C and less than or equal to 10 °C is marked “B”)
Cn1nc2nc1-c1cc(ccn1)S(=O)(=O)c1c(F)c(F)c3[nH]ccc3c1CCS(=O)(=O)CC(C)(C)CCC[C@]2(C)c1cccc(C[C@H](O)CO)c1 [Compound 342]	A (an ΔTagg value less than or equal to 5 °C is marked “A”)
C[C@H](Cc1cccc([C@@]2(C)CCCC(C)(C)CS(=O)(=O)CCc3c(c(F)c(F)c4[nH]cc(F)c34)Oc3ccc(F)c(c3)-c3nc2nn3C)c1)C(=O)O [Compound 345, (2R)-2-Methyl-3-[3-[(6R)-17,21,22,28-tetrafluoro-3,6,10,10-tetramethyl-12,12-dioxo-24-oxa-12λ6-thia-3,4,19,30-tetrazapentacyclo[23.3.1.12,5.015,23.016,20]triaconta-1(29),2(30),4,15,17,20,22,25,27-nonaen-6-yl]phenyl]propanoic Acid]	B (a value above 5 °C and less than or equal to 10 °C is marked “B”)
C[C@@H](Cc1cccc([C@@]2(C)CCCC(C)(C)CS(=O)(=O)CCc3c(c(F)c(F)c4[nH]ccc34)S(=O)(=O)c3ccnc(c3)-c3nc2nn3C)c1)C(=O)O [Compound 346, (2S)-3-[3-[(6R)-21,22-Difluoro-3,6,10,10-tetramethyl-12,12,24,24-tetraoxo-12λ6,24λ6-dithia-3,4,19,28,30-pentazapentacyclo[23.3.1.12,5.015,23.016,20]triaconta-1(29),2(30),4,15,17,20,22,25,27-nonaen-6-yl]phenyl]-2-methyl-propanoic Acid]	B (a value above 5 °C and less than or equal to 10 °C is marked “B”)
C[C@@H](Cc1cccc([C@@]2(C)CCCC(C)(C)CS(=O)(=O)CCc3c(c(F)cc4[nH]ccc34)S(=O)(=O)c3ccnc(c3)-c3nc2nn3C)c1)C(=O)O [Compound 347, (2S)-3-[3-[(6R)-22-Fluoro-3,6,10,10-tetramethyl-12,12,24,24-tetraoxo-12λ6,24λ6-dithia-3,4,19,28,30-pentazapentacyclo[23.3.1.12,5.015,23.016,20]triaconta-1(29),2(30),4,15,17,20,22,25,27-nonaen-6-yl]phenyl]-2-methyl-propanoic Acid]	B (a value above 5 °C and less than or equal to 10 °C is marked “B”)
Cn1nc2nc1-c1cc(ccc1F)S(=O)(=O)c1c(F)cc3[nH]ccc3c1CCS(=O)(=O)CC(C)(C)CCC[C@]2(C)c1cccc(CC(C)(C)C(=O)O)c1 [Compound 348A, 3-[3-[(6R)-22,28-Difluoro-3,6,10,10-tetramethyl-12,12,24,24-tetraoxo-12λ6,24λ6-dithia-3,4,19,30-tetrazapentacyclo[23.3.1.12,5.015,23.016,20]triaconta-1(29),2(30),4,15,17,20,22,25,27-nonaen-6-yl]phenyl]-2,2-dimethyl-propanoic Acid]	A (an ΔTagg value less than or equal to 5 °C is marked “A”)
Cn1nc2nc1-c1cc(ccc1F)S(=O)(=O)c1c(F)cc3[nH]cc(Cl)c3c1CCS(=O)(=O)CC(C)(C)CCC[C@]2(C)c1cccc(CC(C)(C)C(=O)O)c1 [Compound 348B, 3-[3-[(6R)-17-Chloro-22,28-difluoro-3,6,10,10-tetramethyl-12,12,24,24-tetraoxo-12λ6,24λ6-dithia-3,4,19,30-tetrazapentacyclo[23.3.1.12,5.015,23.016,20]triaconta-1(29),2(30),4,15,17,20,22,25,27-nonaen-6-yl]phenyl]-2,2-dimethyl-propanoic Acid]	A (an ΔTagg value less than or equal to 5 °C is marked “A”)
C[C@H](Cc1cccc([C@@]2(C)CCCC(C)(C)CS(=O)(=O)CCc3c(c(F)cc4[nH]ccc34)S(=O)(=O)c3ccnc(c3)-c3nc2nn3C)c1)C(=O)O [Compound 349, (2R)-3-[3-[(6R)-22-Fluoro-3,6,10,10-tetramethyl-12,12,24,24-tetraoxo-12λ6,24λ6-dithia-3,4,19,28,30-pentazapentacyclo[23.3.1.12,5.015,23.016,20]triaconta-1(29),2(30),4,15,17,20,22,25,27-nonaen-6-yl]phenyl]-2-methyl-propanoic Acid]	B (a value above 5 °C and less than or equal to 10 °C is marked “B”)
Cn1nc2nc1-c1cc(ccn1)S(=O)(=O)c1c(F)cc3[nH]ccc3c1CCS(=O)(=O)CC(C)(C)CCC[C@]2(C)c1cccc(CC(C)(C)C(=O)O)c1 [Compound 350, 3-[3-[(6R)-22-Fluoro-3,6,10,10-tetramethyl-12,12,24,24-tetraoxo-12λ6,24λ6-dithia-3,4,19,28,30-pentazapentacyclo[23.3.1.12,5.015,23.016,20]triaconta-1(29),2(30),4,15,17,20,22,25,27-nonaen-6-yl]phenyl]-2,2-dimethyl-propanoic Acid]	A (an ΔTagg value less than or equal to 5 °C is marked “A”)
C[C@@H](Cc1cccc([C@@]2(C)CCCC(C)(C)CS(=O)(=O)CCc3c(c(F)c(F)c4[nH]ccc34)S(=O)(=O)c3ccc(F)c(c3)-c3nc2nn3C)c1)C(=O)O [Compound 351, (2S)-2-Methyl-3-[3-[(6R)-21,22,28-trifluoro-3,6,10,10-tetramethyl-12,12,24,24-tetraoxo-12λ6,24λ6-dithia-3,4,19,30-tetrazapentacyclo[23.3.1.12,5.015,23.016,20]triaconta-1(29),2(30),4,15,17,20,22,25,27-nonaen-6-yl]phenyl]propanoic Acid]	B (a value above 5 °C and less than or equal to 10 °C is marked “B”)
Cn1nc2nc1-c1cc(ccn1)S(=O)(=O)c1c(F)c(F)c3[nH]ccc3c1CCS(=O)(=O)CC(C)(C)CCC[C@]2(C)c1cccc(CC(C)(C)C(=O)O)c1 [Compound 352, 3-[3-[(6R)-21,22-Difluoro-3,6,10,10-tetramethyl-12,12,24,24-tetraoxo-12λ6,24λ6-dithia-3,4,19,28,30-pentazapentacyclo[23.3.1.12,5.015,23.016,20]triaconta-1(29),2(30),4,15,17,20,22,25,27-nonaen-6-yl]phenyl]-2,2-dimethyl-propanoic Acid]	A (an ΔTagg value less than or equal to 5 °C is marked “A”)
C[C@@H](Cc1cccc([C@@]2(C)CCCC(C)(C)CS(=O)(=O)CCc3c[nH]c4c(F)c(F)c(cc34)Oc3ccc(F)c(c3)-c3nc2nn3C)c1)C(=O)O [Compound 353, (2S)-2-Methyl-3-[3-[(12R)-6,25,26-trifluoro-9,12,16,16-tetramethyl-18,18-dioxo-2-oxa-18λ6-thia-9,10,23,29-tetrazapentacyclo[19.5.2.13,7.18,11.024,28]triaconta-1(26),3,5,7(30),8(29),10,21,24,27-nonaen-12-yl]phenyl]propanoic Acid]	A (an ΔTagg value less than or equal to 5 °C is marked “A”)
COC(=O)[C@@H](C)Cc1cccc([C@@]2(C)CCCC(C)(C)CS(=O)(=O)CCc3c[nH]c4cc(F)c(cc34)Sc3ccc(F)c(c3)-c3nc2nn3C)c1 [Compound 354, Methyl (2S)-3-[3-[(12R)-6,26-difluoro-9,12,16,16-tetramethyl-18,18-dioxo-2,18λ6-dithia-9,10,23,29-tetrazapentacyclo[19.5.2.13,7.18,11.024,28]triaconta-1(26),3,5,7(30),8(29),10,21,24,27-nonaen-12-yl]phenyl]-2-methyl-propanoate]	A (an ΔTagg value less than or equal to 5 °C is marked “A”)
C[C@@H](Cc1cccc([C@@]2(C)CCCC(C)(C)CS(=O)(=O)CCc3c[nH]c4cc(F)c(cc34)[S+]([O-])c3ccc(F)c(c3)-c3nc2nn3C)c1)C(=O)O (some centres unmarked) [Compound 355]	A (an ΔTagg value less than or equal to 5 °C is marked “A”)
C[C@H](Cc1cccc([C@@]2(C)CCCC(C)(C)CS(=O)(=O)CCc3c(ncc4[nH]ccc34)Oc3ccc(F)c(c3)-c3nc2nn3C)c1)C(=O)O [Compound 356, (2R)-3-[3-[(6R)-28-Fluoro-3,6,10,10-tetramethyl-12,12-dioxo-24-oxa-12λ6-thia-3,4,19,22,30-pentazapentacyclo[23.3.1.12,5.015,23.016,20]triaconta-1(29),2(30),4,15,17,20,22,25,27-nonaen-6-yl]phenyl]-2-methyl-propanoic acid]	A (an ΔTagg value less than or equal to 5 °C is marked “A”)
C[C@@H](Cc1cccc([C@@]2(C)CCCC(C)(C)CS(=O)(=O)CCc3c(c(F)cc4[nH]ccc34)S(=O)(=O)c3cccc(c3)-c3nc2nn3C)c1)C(=O)O [Compound 357, (2S)-3-[3-[(6R)-22-Fluoro-3,6,10,10-tetramethyl-12,12,24,24-tetraoxo-12λ6,24λ6-dithia-3,4,19,30-tetrazapentacyclo[23.3.1.12,5.015,23.016,20]triaconta-1(29),2(30),4,15,17,20,22,25,27-nonaen-6-yl]phenyl]-2-methyl-propanoic Acid]	B (a value above 5 °C and less than or equal to 10 °C is marked “B”)
Cn1nc2nc1-c1cc(ccc1F)S(=O)(=O)c1c(F)c(F)c3[nH]ccc3c1CCS(=O)(=O)CC(C)(C)CCC[C@]2(C)c1cccc(CC(C)(C)C(=O)O)c1 [Compound 358, 2,2-Dimethyl-3-[3-[(6R)-21,22,28-trifluoro-3,6,10,10-tetramethyl-12,12,24,24-tetraoxo-12λ6,24λ6-dithia-3,4,19,30-tetrazapentacyclo[23.3.1.12,5.015,23.016,20]triaconta-1(29),2(30),4,15,17,20,22,25,27-nonaen-6-yl]phenyl]propanoic Acid]	A (an ΔTagg value less than or equal to 5 °C is marked “A”)
